According to patent US9290427B2, “Anti-invasive compounds” (Universiteit Gent, priority 2012, dated 2016):

System: not given
Details: not given

| melting point | Structure (SMILES) |
| --- | --- |
| 71 to 72 °C | COc1cccc(/C=C/c2ccc(Cl)cc2)c1 [Compound 99, (E)-4′-Chloro-3-methoxystilbene] |
| 92 to 93 °C | Fc1ccc(/C=C/c2cccc(F)c2)cc1 [Compound 98, (E)-3,4′-Difluorostilbene] |
| 116 to 117 °C | Fc1ccc(/C=C/c2ccc(F)cc2)cc1 [Compound 90, (E)-4,4′-Difluorostilbene] |

System: MCF-7/6 mammary carcinoma cells
Set-up: unit not given here
Details: training set compounds 1-34, Indo-Belgian screening program; class = log cmin, lowest concentration with invasion grade I or II; cited from earlier work

| Structure (SMILES) | Actual class |
| --- | --- |
| COc1cc(OC)c(C(=O)/C=C/c2ccc(C(C)C)cc2)cc1CC=C(C)C [Compound 14, (2E)-3-(4-(1-methylethyl)phenyl)-1-(2′,4′-dimethoxy-5′-(3-methylbut-2-enyl)phenyl)propenone] | 1 (about 10) |
| COc1cc(OC)c(C(=O)/C=C/c2ccc3c(c2CCc2ccccc2)CCC(C)(C)O3)cc1CC=C(C)C [Compound 5, (2E)-1-[2,4-Dimethoxy-5-(3-methylbut-2-enyl)phenyl]-3-(2,2-dimethyl-5-phenethylchroman-6-yl)propenone] | 1 (about 10) |
| COc1cc(O)c(C(=O)/C=C/c2ccc(Oc3ccccc3)cc2)cc1C(c1ccccc1)c1ccccc1 [Compound 3, (2E)-1-(5-Benzhydryl-2-hydroxy-4-methoxyphenyl)-3-(4-phenoxyphenyl)propenone] | 3 (>100) |
| COc1cc(/C=C/C(=O)c2ccc(OCc3ccccc3)c(OCc3ccccc3)c2)ccc1OCc1ccccc1 [Compound 13, (2E)-3-(4-Benzyloxy-3-methoxyphenyl)-1-(3,4-bis-benzyloxyphenyl)propenone] | 1 (about 10) |
| COc1ccc(/C=C/C(=O)c2cc3c(cc2O)OC(C)(C)C=C3)c(OC)c1 [Compound 30, (2E)-3-(2,4-Dimethoxyphenyl)-1-(7-hydroxy-2,2-dimethyl-2H-chromen-6-yl)propenone] | 3 (>100) |
| COc1cc(OC)c(C(=O)/C=C/c2ccccc2)cc1CC=C(C)C [Compound 18, (2E)-3-phenyl-1-(2′,4′-dimethoxy-5′-(3-methylbut-2-enyl)phenyl)propenone] | 0 (about 1) |
| COc1ccc(/C=C/C(=O)c2cc(C(c3ccccc3)c3ccccc3)c(OC)cc2O)cc1 [Compound 1, (2E)-1-(5-Benzhydryl-2-hydroxy-4-methoxyphenyl)-3-(4-methoxyphenyl)propenone] | 3 (>100) |
| CC1(C)CCc2c(O)c(C(=O)/C=C/c3ccc(Oc4ccccc4)cc3)c3c(c2O1)CCC(C)(C)O3 [Compound 6, (2E)-1-(5-Hydroxy-2,2,8,8-tetramethyl-3,4,9,10-tetrahydro-2H,8H-pyrano[2,3-f]chromen-6-yl)-3-(4-phenoxypheny)propenone] | 3 (>100) |
| COc1ccc(/C=C/C(=O)c2cc3c(cc2O)OC(C)(C)CC3)cc1OC [Compound 23, (2E)-3-(3,4-Dimethoxyphenyl)-1-(7-hydroxy-2,2-dimethylchroman-6-yl)propenone] | 2 (about 100) |
| COc1ccc(C(=O)/C=C/c2ccc(C(C)C)cc2)cc1OC [Compound 31, (2E)-3-(4-(1-methylethyl)phenyl)-1-(3′,4′-dimethoxyphenyl)propenone] | 3 (>100) |
| COc1ccc(C(=O)/C=C/c2ccc(C)cc2)cc1OC [Compound 16, (2E)-3-(4-methylphenyl)-1-(3′,4′-dimethoxyphenyl)propenone] | 2 (about 100) |
| C=CCOc1c(OC)cc(O)c(C(=O)/C=C/c2ccc(O)cc2)c1OC [Compound 28, (2E)-3-(4-hydroxyphenyl)-1-(6′-hydroxy-2′,4′-dimethoxy-3′-(2-propenyloxy)phenyl)propenone] | 1 (about 10) |
| Cc1ccc(/C=C/C(=O)c2c(O)c3c(c4c2OC(C)(C)CC4)OC(C)(C)CC3)cc1 [Compound 4, (2E)-1-(5-Hydroxy-2,2,8,8-tetramethyl-3,4,9,10-tetrahydro-2H,8H-pyrano[2,3-f]chromen-6-yl)-3-p-tolyl-propenone] | 3 (>100) |
| COc1ccc(/C=C/C(=O)c2c(O)c3c(c4c2OC(C)(C)CC4)OC(C)(C)CC3)cc1OCc1ccccc1 [Compound 7, (2E)-3-(3-Benzyloxy-4-methoxy-phenyl)-1-(5-hydroxy-2,2,8,8-tetramethyl-3,4,9,10-tetrahydro-2H,8H-pyrano[2,3-f]chromen-6-yl)propenone] | 3 (>100) |
| COc1cc(OC)c(C(=O)/C=C/c2ccc([N+](=O)[O-])cc2)cc1CC=C(C)C [Compound 10, (2E)-3-(4-nitrophenyl)-1-(2′,4′-dimethoxy-5′-(3-methylbut-2-enyl)phenyl)propenone] | 3 (>100) |
| COc1ccc(/C=C/C(=O)c2cc3c(cc2OC)OC(C)(C)C(O)C3)c(OC)c1 (centres unmarked) [Compound 29, (2E)-3-(2,4-Dimethoxyphenyl)-1-(3-hydroxy-7-methoxy-2,2-dimethylchroman-6-yl)-propenone] | 3 (>100) |
| COc1ccc(C(=O)/C=C/c2cccc(Oc3ccccc3)c2)cc1OC [Compound 32, (2E)-3-(3-phenoxyphenyl)-1-(3′,4′-dimethoxyphenyl)propenone] | 3 (>100) |
| COc1ccc(C(=O)/C=C/c2ccc([N+](=O)[O-])cc2)cc1OC [Compound 20, (2E)-3-(4-nitrophenyl)-1-(3′,4′-dimethoxyphenyl)propenone] | 3 (>100) |
| COc1ccc(/C=C/C(=O)c2ccc3c(c2)OCO3)c(OC)c1 [Compound 22, (2E)-1-Benzo[1,3]dioxol-5-yl-3-(2,4-dimethoxyphenyl)propenone] | 2 (about 100) |
| COc1ccc(/C=C/C(=O)c2cc(CC=C(C)C)c(OC)cc2OC)c(OC)c1 [Compound 33, (2E)-3-(2,4-dimethoxyphenyl)-1-(2′,4′-dimethoxy-5′-(3-methylbut-2-enyl)phenyl)propenone] | 3 (>100) |
| CC(C)c1ccc(/C=C/C(=O)c2c(O)c3c(c4c2OC(C)(C)CC4)OC(C)(C)CC3)cc1 [Compound 8, (2E)-1-(5-Hydroxy-2,2,8,8-tetramethyl-3,4,9,10-tetrahydro-2H,8H-pyrano[2,3-f]chromen-6-yl)-3-(4-isopropylphenyl)propenone] | 3 (>100) |
| COc1cccc(/C=C/C(=O)c2ccc3c(c2)OCO3)c1OC [Compound 26, (2E)-1-Benzo[1,3]dioxol-5-yl-3-(2,3-dimethoxyphenyl)propenone] | 1 (about 10) |
| CCOc1ccc(/C=C/C(=O)c2cc(C(c3ccccc3)c3ccccc3)c(OC)cc2O)cc1 [Compound 2, (2E)-1-(5-Benzhydryl-2-hydroxy-4-methoxyphenyl)-3-(4-ethoxyphenyl)propenone] | 3 (>100) |
| COc1cc(OC)c(C(=O)/C=C/c2ccccc2)c2c1CC(O)C(C)(C)O2 (centres unmarked) [Compound 24, (2E)-1-(3-Hydroxy-5,7-dimethoxy-2,2-dimethylchroman-8-yl)-3-phenylpropenone] | 0 (about 1) |
| COc1ccc(/C=C/C(=O)c2cc3c(cc2O)OC(C)(C)C(O)C3)c(OC)c1 (centres unmarked) [Compound 12, (2E)-1-(3,7-Dihydroxy-2,2-dimethylchroman-6-yl)-3-(2,4-dimethoxy-phenyl)propenone] | 1 (about 10) |
| COc1cc(OC)c(C(=O)/C=C/c2ccccc2)c(OC)c1CC=C(C)C [Compound 15, (2E)-3-phenyl-1-(2′,4′,6′-trimethoxy-3′-(3-methylbut-2-enyl)phenyl)propenone] | 3 (>100) |
| COc1cc(OC)c(C(=O)/C=C/c2ccc(OC)c(OC)c2)cc1CC=C(C)C [Compound 19, (2E)-3-(3,4-dimethoxyphenyl)-1-(2′,4′-dimethoxy-5′-(3-methylbut-2-enyl)phenyl)propenone] | 1 (about 10) |
| COc1cc(OC)c(C(=O)/C=C/c2ccccc2)c(O)c1OC [Compound 17, (2E)-3-phenyl-1-(2′-hydroxy-3′,4′,6′-trimethoxyphenyl)propenone] | 2 (about 100) |
| COc1cc(O)c(C(=O)/C=C/c2ccccc2)c(OC)c1OC [Compound 21, (2E)-3-phenyl-1-(6′-hydroxy-2′,3′,4′-trimethoxyphenyl)propenone] | 0 (about 1) |
